Measured values as given in US11053207B2, “Indoleamine-2,3-dioxygenase inhibitor and preparation method therefor” (SHANGHAI INSTITUTE OF ORGANIC CHEMISTRY, CHINESE ACADEMY OF …, priority 2014, dated 2021).

What was measured:
IDO enzyme = IDO enzyme (Homo sapiens (Human), UniProt P14902); assay: IDO enzyme inhibitory activity; type: biochemical; conditions: OD321 nm, 60 min
Procedure: Firstly, the IDO gene was amplified by PCR, the PCR amplification products were recovered, and then the pET28a plasmid (purchased from Shanghai Baoman Biotechnology Co., Ltd.) and the IDO gel recovery products were digested with EcoR I and Xho I restriction endonucleases (37° C., digestion for 2 h), electrophorized and recovered. The recovered products were ligated overnight by a T4 ligase and then the ligation products were added to DH5α competent cells, placed on ice for 30 min, heat-shocked at 42° C. for 90 s, cultured on a shaker, and seeded to a plate. Monoclonies were picked, identified by PCR and then by sequencing.
The constructed BL21 containing the pET28a-IDO plasmid was cultured at 37° C. to OD600=0.6-0.8, and a final concentration of 7 μM of chlorine methemoglobin and 1 mM of IPTG (isopropyl-β-D-thiogalactoside) were added for induction at 28° C. for 4 h; after the induction, the cell was centrifuged at 6000 rpm at 4° C., the collected cells were washed once with 20 mM PBS (pH6.5), and centrifuged and collected again.
The collected cells were resuspended with a lysis solution (20 mM PBS pH 6.5), ultrasonically lysed (40% of power, lysis for 20 min, placed on ice), the lysed bacteria were centrifuged at 13000 rpm for 15 min, precipitate was discarded and the supernatant was maintained; the nickel column was equilibrated with the lysis solution (20 mM PBS pH 6.5) for 3 column volumes, and then the lysis supernatant was loaded onto the nickel column; after loading, four column volumes of a rinsing solution (20 mM PBS pH 6.5, 20 mM imidazole) were used for washing, and finally protein was eluted with eluent (20 mM PBS pH 6.5, 250 mM imidazole); the eluted protein solution was dialyzed for 4 h, and the dialysis solution was 20 mM PBS, pH 6.5. After the dialysis, the protein sample was concentrated, packed, flash frozen by liquid nitrogen, and stored at −80° C. for further use.
Firstly, the compound was subject to a 3-fold gradient dilution. 1 μL of each concentration was added to a 96-well plate; 50 μL of the IDO enzyme solution (final concentration 600 ng/100μL) was added: 25 μL of substrate 1 mixture solution was added, 25 μL of substrate 2 mixture solution was added to initiate the reaction. Finally, the plate was read at OD321 nm, 60 min.

Hela cells = assay: Test for cell activity (Hela cells, interferon γ, kynurenine read at 480 nm); type: cell-based; conditions: human interferon γ 50 ng/mL, 48 h
Procedure: Hela cells (100 μL) were inoculated on a 96-well plate at an inoculation amount of 5×10^3 per well and grown overnight. The next day, after the compound was diluted, 1 μL was added to a 96-well plate and then 100 μL of medium containing human interferon y (final concentration of 50 ng/mL) was added to the 96-well plate to allow the final volume to be 200 μL. 48 h after incubating, 140 μL of supernatant in each well was transferred to a new 96-well plate. 10 μL of 6.1 N trichloroacetic acid was added to each well and mixed and incubated at 50° C. for 30 min, IDO catalyzed N-formyl canine urea to become canine urea. The reaction mixture was centrifuged at 2500 rpm for 10 minutes to remove the precipitate. 100 μL of supernatant in each well was transferred to a new 96-well plate and mixed with 100 μL of 2% dimethylaminobenzaldehyde acetic acid solution. After the canine urea was separated, the value was measured at 480 nm using a SPECTRAmax i3 reader.

IDO enzyme, sequence (P14902 whole entry): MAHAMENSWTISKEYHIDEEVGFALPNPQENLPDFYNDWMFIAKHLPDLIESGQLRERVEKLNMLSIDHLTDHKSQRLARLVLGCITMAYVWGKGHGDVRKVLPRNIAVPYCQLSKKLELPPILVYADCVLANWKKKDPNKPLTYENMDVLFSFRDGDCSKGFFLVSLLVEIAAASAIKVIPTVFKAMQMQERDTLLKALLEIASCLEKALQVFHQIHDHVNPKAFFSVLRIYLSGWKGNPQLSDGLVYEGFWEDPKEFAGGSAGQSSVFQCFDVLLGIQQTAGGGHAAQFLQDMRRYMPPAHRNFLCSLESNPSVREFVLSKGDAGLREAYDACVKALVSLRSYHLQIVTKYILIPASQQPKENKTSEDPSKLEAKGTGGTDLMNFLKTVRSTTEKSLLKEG

`CS(=O)(CCNc1nonc1/C(=N/O)Nc1ccc(F)c(Br)c1)=NC#N` (racemic) [compound 6, (±)(Z)—N-(3-bromo-4-fluorophenyl)-N′-hydroxy-4-((2-(thio-methylsulfoxidecyanoimine)ethyl)amino)-1,2,5-oxadiazole-3-carboxamidine] was tested, and the IC50 (IDO enzyme) was 11 nM and the IC50 (Hela cells) was 1.8 nM.
